These are literature values, as cited in patent US12029811B2, “Formulation and method for the treatment of androgenic alopecia” (CENTRO INTERNACIONAL DE COSMIATRÍA, S.A.P.I. DE C.V., priority 2018, dated 2024).

The subject of one data set is patients. The conditions noted are these: oral, 5 mg tablets; impotence, erection failure, decreased libido, gynecomastia.
The next data set relates to alopecia. The conditions noted are these: topical 5% solution (male) or 2% (female alopecia).

Molecules are shown by their SMILES.

On to `CC(C)(C)NC(=O)[C@H]1CC[C@H]2[C@@H]3CC[C@H]4NC(=O)C=C[C@]4(C)[C@H]3CC[C@]12C` [Finasteride, N-(1,1-dimethylethyl)-3-oxo-4-aza 5a-androst-1-en-17β-carboxamide], for which the “Side effects (in words)” value with patients is recorded as “side effects were significant”. For the molecule `Nc1cc(N2CCCCC2)nc(N)[n+]1[O-]` [Minoxidil, 2,6-diamino-4-(piperidin-1-yl) pyrimidine 1-oxide], the “Individuals responding to the treatment” value in the data set on alopecia is recorded as at most 40%.
